Test results from US20200255492A1, “LEPTIN PEPTIDES AND THEIR USE FOR TREATING NEUROLOGICAL DISORDERS” (UNIVERSITY OF DUNDEE, priority 2017, published 2020).

Assays:
[1] = system: SH-SY5Y neural cells; test: Serum/glucose deprivation (in vitro model of stroke), crystal violet assay; assay type: cell-based, human; conditions: 96 hours; range of concentrations
Method: Cultures were established on 7 separate occasions in quadruplicate and starved of serum and glucose when they reached 70% confluence. Neural cell viability in response to a range of concentrations of leptin116-130 was determined 96 hours later using a crystal violet assay to measure cell number. Statistical significance relative to serum/glucose deprivation is denoted with ** where P<0.01 and *** where P<0.001. Photomicrographs of serum/glucose deprived cultures and of serum/glucose deprived cultures treated with 0.1 nM leptin116-130 (B) further highlight the enhanced cell number in the presence of leptin116-130. Scale bar represents 25 μm. […]
The concentration of lactate dehydrogenase (LDH) in the culture medium or the mitochondrial activity within cells was used to monitor the level of cell death, as previously (Oldreive and Doherty 2010). […] Plates were washed 5-10 times in dH2O and cells solubilised in 100 μl dimethyl sulfoxide (DMSO) before reading the absorbance on a Biohit BP100 plate reader. For all assays, data is expressed as percentage relative to control, untreated wells to normalize for differences in plating density between individual experiments.

[2] = system: STAT3; test: ELISA ratio of phospho-STAT3 to pan-STAT3; assay type: cell-based, human; conditions: 1 nM; 3 h
Method: (§1) The human neuroblastoma cell line, SH-SY5Y (ECACC, UK) was maintained in Dulbecco's Modified Eagle Medium supplemented with glucose ([…]) and 10% (v/v) cosmic calf serum (Fisher Scientific, UK) at 37° C. in a humidified atmosphere of 5% CO2, 95% air and allowed to reach 70-80% confluence before seeding. Cells (passage 10-18) were plated at 10 000 cells per well in 96 well tissue culture plates (Nunc, VWR, UK) and at a density of 2×10^5 cells in 35 mm dishes for protein extraction. To induce differentiation, cells were cultured in DMEM supplemented with glucose ([…]), 1% (v/v) cosmic calf serum and 10 μM retinoic acid for 5 days. Thereafter they were incubated in DMEM supplemented with glucose ([…]), serum replacement 2 (2%; Sigma, UK) and 18 μM 5-fluorodeoxyuridine to inhibit proliferation of undifferentiated cells. The 50% of the medium was changed every 2-3 days and pharmacological treatment was carried out 7 days after switching to this medium. Reagents used were (from Sigma UK unless stated) 0.1-10 nM human leptin and leptin (116-130); 0.1-10 nM leptin (22-56; Bachem; Switzerland); 10 nM leptin (116-121) leptin (117-122), leptin (124-129) or leptin (125-130; all Severn Biotech, UK); 5 μM copper chloride; […], 5 μM WP1066 or 50 nM wortmannin. […]

[3] = system: Akt; test: ELISA ratio of phospho-Akt to pan-Akt; assay type: cell-based, human; conditions: 1 nM; 3 h
Method: as §1

[4] = system: mitochondria; test: MitoRed analysis of mitochondrial morphology after 6-OHDA (cellular Parkinson's Disease model); assay type: cell-based; conditions: 0.1 nM plus 100 μM 6-OHDA; 1 hour
Method: Cultures were established on 3 separate occasions in quadruplicate and stained with MitoRED to identify mitochondria after 1 hour of treatment. Statistical significance relative to untreated control is denoted with ** where P<0.01 and *** where P<0.001. Representative images of 100 μM 6-OHDA-treated MitoRED stained cultures (C) and 100 μM 6-OHDA and leptin116-130 co-treated MitoRED stained cultures are shown. Scale bar represents […].
The human neuroblastoma cell line, SH-SY5Y (ECACC, UK) was maintained in Dulbecco's Modified Eagle Medium supplemented with glucose ([…]) and 10% (v/v) cosmic calf serum (Fisher Scientific, UK) at 37° C. in a humidified atmosphere of 5% CO2, 95% air and allowed to reach 70-80% confluence before seeding. Cells (passage 10-18) were plated at 2×10^5 cells on 13 mm borosilicate class coverslips or at 10 000 cells per well in 96 well tissue culture plates (Nunc, VWR, UK) prior to treatment. Reagents used were (from Sigma UK unless stated) 1 nM human leptin, leptin (116-121), leptin (117-122) and leptin (117-125); 0.0001-1 nm murine leptin fragments leptin (116-121), leptin (117-122) and leptin (116-130); 100 μM 6-hydroxydopamine; 10 μM CuCl2; […] Aβ1-42.
Cells were treated with pre-warmed cell culture medium containing 1 μM MitoRed ((9-[2-(4′-Methylcoumarin-7′-oxycarbonyl)phenyl]-3,6-bis(diethylamino)xanthylium chloride) and returned to the incubator for 45 minutes. Following fixation in NBF for 15 minutes, cells were washed 3 times in PBS. Coverslips were mounted in fluorescence mountant onto microscope slides and imaged on the Zeiss Axio MR2 microscope. The mean mitochondrial area and index of fragmentation (number of mitochondria: total area of mitochondrial material) were calculated using Fiji.

[5] = Samson et al. 1996; cited from earlier work

Row | Substance | survival following serum/glucose deprivation [1] | ratio of phosphorylated STAT3 to pan STAT3 [2] | ratio of phosphorylated Akt to pan Akt [3] | mitochondrial clumping (fragmentation index) with 6-OHDA [4] | mitochondrial swelling (mean mitochondrial area) with 6-OHDA [4] | food intake [5]
1 | SCSLPQTSGLQKPES (listed as Mus musculus) [leptin (116-130)] | significant neuroprotection | increased markedly | an increase in the ratio of phosphorylated Akt to pan Akt | prevents 6-OHDA-associated mitochondrial clumping | prevents 6-OHDA-associated mitochondrial swelling | 
2 | leptin (22-56): leptin fragment amino acids 22-56 (Bachem), comparison fragment (VPIQKVQDDTKTLIKTIVTRINDISHTQSVSSKQK; UniProt P41159 22-56, looked up, fragment) [reference compound] |  |  |  |  |  | significant reductions in food intake
